The target of this experiment is T1, recombinant Top1 (Homo sapiens, UniProt P11387).
T1 construct: made in house; host or cells: Sf-9 insect cells (recombinant baculovirus, gift of Prof. James J. Champoux)
T1 sequence (P11387 1-765): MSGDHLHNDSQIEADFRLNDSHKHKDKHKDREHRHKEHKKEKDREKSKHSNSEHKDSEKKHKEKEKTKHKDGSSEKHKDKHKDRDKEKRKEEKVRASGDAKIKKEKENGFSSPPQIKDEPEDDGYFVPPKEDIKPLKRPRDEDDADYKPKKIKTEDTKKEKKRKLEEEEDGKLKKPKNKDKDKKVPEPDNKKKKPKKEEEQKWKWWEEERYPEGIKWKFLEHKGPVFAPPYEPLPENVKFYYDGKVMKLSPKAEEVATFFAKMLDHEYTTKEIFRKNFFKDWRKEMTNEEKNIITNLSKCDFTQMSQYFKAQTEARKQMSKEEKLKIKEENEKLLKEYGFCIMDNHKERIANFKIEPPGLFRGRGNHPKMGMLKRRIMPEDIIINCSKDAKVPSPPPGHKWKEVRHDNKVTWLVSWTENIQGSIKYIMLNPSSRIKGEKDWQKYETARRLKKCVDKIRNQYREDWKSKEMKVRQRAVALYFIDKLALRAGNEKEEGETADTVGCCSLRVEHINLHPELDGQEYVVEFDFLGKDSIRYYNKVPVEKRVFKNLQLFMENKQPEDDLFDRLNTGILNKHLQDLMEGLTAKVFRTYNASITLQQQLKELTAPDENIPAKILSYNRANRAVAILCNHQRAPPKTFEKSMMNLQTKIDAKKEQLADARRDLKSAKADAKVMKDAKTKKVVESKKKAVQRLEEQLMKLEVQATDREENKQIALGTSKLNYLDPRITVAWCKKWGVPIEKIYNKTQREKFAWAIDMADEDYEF
Put plainly: Dilution assay with recombinant Top1 (reversibility of inhibition). Format: biochemical. An excerpt:
To further investigate the nature of binding of compound 8 with Top1 (reversible vs irreversible),[12],[14] we performed dilution assay with recombinant Top1.

SMILES strings stand for the structures.

As to `CN(C)c1ccc(-c2c3nc(c(-c4ccc(N(C)C)cc4)c4ccc([nH]4)c(-c4ccc(C(=O)O)cc4)c4nc(c(-c5ccc(C(=O)O)cc5)c5ccc2[nH]5)C=C4)C=C3)cc1` [Compound 8, 5,10-Bis(4-carboxyphenyl)-15,20-bis(4-dimethylaminophenyl)porphyrin], the inhibition – broadly, the change of the read-out against control, counted positive when it falls – at 1 µM (Top1 preincubated with 1 μM compound, read-out: Inhibition of enzyme before dilution) is 90 to 99%. Besides, the “Relief of Top1 inhibition upon dilution” value (at 40-fold dilution (final 0.025 μM)) is “Complete relief of Top1 inhibition”.

The record behind these values is publication PMC5808360, “Neutral Porphyrin Derivative Exerts Anticancer Activity by Targeting Cellular Topoisomerase I (Top1) and Promotes Apoptotic Cell Death without Stabilizing Top1-DNA Cleavage Complexes” (Journal of Medicinal Chemistry, 2017).
